For one experiment, the target named is T1, human OX1 receptors (Homo sapiens, UniProt O43613).
T1 sequence (O43613 1-425): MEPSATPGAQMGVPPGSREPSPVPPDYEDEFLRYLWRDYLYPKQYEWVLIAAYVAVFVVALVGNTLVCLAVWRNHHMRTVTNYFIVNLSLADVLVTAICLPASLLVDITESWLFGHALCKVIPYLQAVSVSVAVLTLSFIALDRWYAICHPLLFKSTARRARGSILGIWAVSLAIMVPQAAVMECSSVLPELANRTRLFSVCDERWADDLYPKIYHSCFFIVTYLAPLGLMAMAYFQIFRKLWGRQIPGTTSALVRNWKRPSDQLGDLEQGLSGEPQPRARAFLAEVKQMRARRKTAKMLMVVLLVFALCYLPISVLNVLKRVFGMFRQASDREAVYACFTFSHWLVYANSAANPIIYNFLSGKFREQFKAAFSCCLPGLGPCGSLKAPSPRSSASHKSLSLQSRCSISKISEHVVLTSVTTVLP
Kind of experiment: Calcium mobilization Ke assay. It counts as cell-based. Particulars: for OX2/OX1: ratio of Ke OX2 to Ke OX1 (table column).

The next experiment concerns Sprague-Dawley rats. Kind of experiment: Locomotor activity and acute cocaine-induced hyperactivity. It counts as in vivo, rat. Particulars: 10 mg/kg alone, i.p. (data not shown).
The next experiment addresses T2, human OX2 receptors (Homo sapiens, UniProt O43614).
T2 sequence (O43614 1-444): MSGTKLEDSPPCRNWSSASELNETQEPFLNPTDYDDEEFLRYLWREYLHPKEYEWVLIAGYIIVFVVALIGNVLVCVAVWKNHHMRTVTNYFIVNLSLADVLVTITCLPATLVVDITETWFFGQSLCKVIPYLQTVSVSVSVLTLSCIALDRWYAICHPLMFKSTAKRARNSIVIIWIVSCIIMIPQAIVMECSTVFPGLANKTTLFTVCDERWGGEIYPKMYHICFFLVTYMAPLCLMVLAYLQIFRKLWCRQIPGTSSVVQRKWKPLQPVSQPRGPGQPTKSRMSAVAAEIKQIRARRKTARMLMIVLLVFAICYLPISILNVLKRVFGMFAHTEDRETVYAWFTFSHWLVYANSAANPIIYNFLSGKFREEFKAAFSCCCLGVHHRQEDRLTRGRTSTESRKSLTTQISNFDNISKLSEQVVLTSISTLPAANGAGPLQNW
Kind of experiment: Calcium mobilization Ke assay. The experiment is classed as cell-based. On the technique in general: A change in cytosolic calcium serves as a functional read-out for many receptors and channels.

The next experiment has as its system OX1. Conditions: cited from earlier work.
The conditions of experiment [1]: administrated i.p.; cited from earlier work.

Where only a bound is given, the exact number is not on record here.

This is an account of results in article PMC4400266 (ACS chemical neuroscience, 2015).

Consider `CCCOc1ccc(CC2c3cc(OCCC)c(OC)cc3CCN2CC(=O)NCc2ccccc2)cc1OC` (stereo not drawn) [Compound 73, N-Benzyl-2-{6-methoxy-1-[(3-methoxy-4-propoxyphenyl)methyl]-7-propoxy-1,2,3,4-tetrahydroisoquinolin-2-yl}acetamide], for which, on human OX1 receptors, the “OX1 selectivity over the OX2 receptor” value is given as > 620 fold. The spontaneous activity entry in the experiment with Sprague-Dawley rats is recorded as “did not significantly alter the spontaneous activity”.

`COc1cc2c(cc1OC)C(Cc1ccc(C(C)C)cc1)N(CC(=O)NCc1ccccc1)CC2` (stereo not drawn) [Compound 51, N-Benzyl-2-(6,7-dimethoxy-1-{[4-(propan-2-yl)phenyl]methyl}-1,2,3,4-tetrahydroisoquinolin-2-yl)acetamide]: the OX2/OX1 on human OX1 receptors is given as >118. In addition, the Kb at human OX2 receptors is > 10 µM.

In the case of `CCNc1cc(CC2c3cc(OC)c(OC)cc3CCN2CC(=O)NCc2ccccc2)ccc1OC` (stereo not drawn) [Compound 29, N-Benzyl-2-(1-{[3-(ethylamino)-4-methoxyphenyl]methyl}-6,7-dimethoxy-1,2,3,4-tetrahydroisoquinolin-2-yl)acetamide], at human OX1 receptors, the OX2/OX1 is >32. Moreover, at human OX2 receptors, the Kb is > 10 µM.

As for `CCCNc1cc(CC2c3cc(OC)c(OC)cc3CCN2CC(=O)NCc2ccccc2)ccc1OC` (stereo not drawn) [Compound 31, N-Benzyl-2-(6,7-dimethoxy-1-{[4-methoxy-3-(propylamino)phenyl]methyl}-1,2,3,4-tetrahydroisoquinolin-2-yl)acetamide], the OX2/OX1 on human OX1 receptors was >11. Besides, the Kb at human OX2 receptors was > 10 µM.

Take `Cc1nc2ccc(NC(=O)Nc3ccnc4cccnc34)cc2o1` [SB-334867]: the “affinity for OX1 higher than for OX2” value with OX1 is ~ 50 fold. Also, in experiment [1], the “development of locomotor sensitization to cocaine” value was “block the development of locomotor sensitization to cocaine”.

Consider `COc1cc2c(cc1OC)C(Cc1ccc(OC)c(N(C)C)c1)N(CC(=O)NCc1ccccc1)CC2` (stereo not drawn) [Compound 28, N-Benzyl-2-(1-{[3-(dimethylamino)-4-methoxyphenyl]methyl}-6,7-dimethoxy-1,2,3,4-tetrahydroisoquinolin-2-yl)acetamide], for which the OX2/OX1 at human OX1 receptors was 76.7. On human OX2 receptors, the Kb came to 0.97 ± 0.35 µM.
